Target: T1, FsCE15 (Fibrobacter succinogenes, UniProt C9RKY6)
T1 construct: gene FSU_2898; codon-optimised synthetic gene, His6 tag (C-terminal for crystals)
Test: continuous coupled uronic acid assay (Megazyme K-Uronic)
Format: biochemical
Settings: pH 7.0, 3-component buffer, 2 mM substrate

T1 sequence (C9RKY6 entry or part of it): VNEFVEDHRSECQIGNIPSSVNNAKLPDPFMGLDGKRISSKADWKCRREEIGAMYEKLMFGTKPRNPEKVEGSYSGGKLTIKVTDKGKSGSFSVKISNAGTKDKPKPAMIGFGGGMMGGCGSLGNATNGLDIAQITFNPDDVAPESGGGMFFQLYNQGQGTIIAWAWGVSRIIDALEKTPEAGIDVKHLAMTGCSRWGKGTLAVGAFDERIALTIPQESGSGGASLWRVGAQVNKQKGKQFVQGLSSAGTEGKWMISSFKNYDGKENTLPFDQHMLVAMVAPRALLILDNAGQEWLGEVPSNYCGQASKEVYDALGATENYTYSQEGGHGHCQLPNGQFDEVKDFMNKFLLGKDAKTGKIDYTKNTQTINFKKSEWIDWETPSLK

continuous coupled uronic acid assay (Megazyme K-Uronic): All of the enzymes cleaved AllylGlcA
SMILES: C=CCOC(=O)[C@H]1OC(O)[C@H](O)[C@@H](O)[C@@H]1O (stereo partly drawn) [Allyl D-glucuronate]

From publication PMC11345330, “Structural, Biochemical, and Phylogenetic Analysis of Bacterial and Fungal Carbohydrate Esterase Family 15 Glucuronoyl Esterases in the Rumen” (The Protein Journal, 2024)
